Test results taken from PubChem BioAssay (NCI).
“And” between values parts separate entries of the source, which are not always exact repeats. Equal values may be shown once.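 Values below derive from 48-hour exposures of cells grown in 96-well plates, with endpoints linearly interpolated between the two concentrations bracketing the appropriate inhibition level. The concentration for 50% growth inhibition is given as GI50. Definition used: TGI = concentration required for complete inhibition of growth.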

Experiments:
Assay in all cases: NCI anticancer screen, dose series, 48 h
T-47D breast = test system: T-47D breast
MDA-N = test system: MDA-N
M19-MEL melanoma = test system: M19-MEL melanoma
KM20L2 colon = test system: KM20L2 colon
DLD-1 colon = test system: DLD-1 colon
DMS 273 small cell lung = test system: DMS 273 small cell lung
LXFL 529 NSCLC = test system: LXFL 529 NSCLC
DMS 114 small cell lung = test system: DMS 114 small cell lung
RXF-631 renal = test system: RXF-631 renal

O=C(Nc1cccc(Cl)c1)Nn1cnnc1
GI50 (T-47D breast): > 50 µM
TGI (T-47D breast): > 100 µM
TGI (MDA-N): > 100 µM

CO/N=C(\COc1ccc2c(c1)[nH]c1ccccc12)c1ccc(OC)cc1
GI50 (T-47D breast): > 100 µM
TGI (T-47D breast): > 100 µM

C/C(=N/O)c1cccc(Nc2cc(-n3nnc4ccccc43)nc3ccccc23)c1
GI50 (T-47D breast): 34.6 µM
TGI (T-47D breast): > 85.3 µM

O=C(/C=C/c1ccccc1)Oc1cccc2cccnc12
TGI (M19-MEL melanoma): > 100 µM
TGI (KM20L2 colon): > 39.3 µM
TGI (DLD-1 colon): 31.4 µM
TGI (DMS 273 small cell lung): 45.6 µM
TGI (LXFL 529 NSCLC): 52.2 µM

O=C1C=CC(=O)c2c1ccc1c3ccccc3n(Cc3ccc([N+](=O)[O-])cc3)c21
TGI (T-47D breast): > 100 µM
TGI (MDA-N): > 100 µM

O=C(O)c1nc(NCc2nc3cc(Cl)ccc3o2)n[nH]1
GI50 (T-47D breast): > 100 µM
TGI (T-47D breast): > 100 µM

COC(=O)C1=CO[C@@H](OC2CC(CO)C(O)C(O)C2O)[C@@H]2[C@@H](C)[C@@H](OC(=O)/C=C/c3ccccc3)[C@@H](O)[C@H]12 (some centres not stated) (tested in a mixture with another compound)
TGI (M19-MEL melanoma): > 100 µM
TGI (KM20L2 colon): > 100 µM
TGI (DLD-1 colon): > 100 µM
TGI (DMS 114 small cell lung): > 100 µM
TGI (LXFL 529 NSCLC): > 100 µM

N#CC(C#N)=C/C=C(\Cl)c1ccc(Cl)cc1
GI50 (T-47D breast): 13.8 µM
TGI (T-47D breast): 49.1 µM

C[N+](C)(C)CCC(=O)CC[N+](C)(C)C
TGI (M19-MEL melanoma): 54.5 µM
TGI (KM20L2 colon): 55.4 µM
TGI (DLD-1 colon): 39.2 µM
TGI (DMS 114 small cell lung): 44.2 µM
TGI (DMS 273 small cell lung): 63.6 µM
TGI (LXFL 529 NSCLC): 30.4 µM

COc1cc2c(c3c1c(=O)c1ccccc1n3C)C=CC1(CCCC1)O2
TGI (MDA-N): 29.3 µM

COC(=O)C1=C(O)C(C(=O)OC)C2CC(=O)CC1C2(C)C (configuration not stated)
TGI (T-47D breast): > 100 µM
TGI (MDA-N): > 100 µM

O=C(COc1ccccc1Cl)N1N=C(c2ccc(Cl)cc2)CC1(O)c1ccccc1 (configuration not stated)
TGI (M19-MEL melanoma): > 100 µM
TGI (KM20L2 colon): > 100 µM
TGI (DLD-1 colon): > 100 µM
TGI (DMS 273 small cell lung): > 100 µM
TGI (RXF-631 renal): > 100 µM
TGI (LXFL 529 NSCLC): > 100 µM

CC1=C(C(=O)Nc2ccccc2C)C(c2ccc(Cl)cc2)C(C(=O)Nc2ccccc2C)=C(C)N1
TGI (M19-MEL melanoma): > 100 µM
TGI (DLD-1 colon): > 100 µM
TGI (DMS 114 small cell lung): > 100 µM
TGI (RXF-631 renal): > 100 µM
TGI (LXFL 529 NSCLC): > 100 µM

CCSCCCSCCSCC
TGI (T-47D breast): > 100 µM
TGI (MDA-N): > 100 µM

O=C(Oc1cccnc1)c1cccnc1Nc1ccnc(C(F)(F)F)c1
GI50 (T-47D breast): 36.3 µM
TGI (T-47D breast): > 100 µM

CCC1(O)C(=O)OCc2c1cc1n(c2=O)Cc2cc3ccccc3nc2-1 (configuration not stated)
TGI (T-47D breast): > 33.6 µM

Cc1c(/C=N/NC(=O)c2ccccc2O)c(=O)n(-c2ccccc2)n1C
TGI (M19-MEL melanoma): > 100 µM
TGI (KM20L2 colon): > 100 µM
TGI (DLD-1 colon): > 100 µM
TGI (DMS 114 small cell lung): > 100 µM
TGI (DMS 273 small cell lung): > 100 µM
TGI (LXFL 529 NSCLC): > 100 µM

O=C1/C(=C/c2ccc([N+](=O)[O-])cc2)CN(C(=O)CCN2CCC(=NO)CC2)C/C1=C\c1ccc([N+](=O)[O-])cc1
GI50 (T-47D breast): 1.84 µM
TGI (T-47D breast): 9.27 µM

CCCN1C(=O)NC(=O)C(CC)(N2C(=O)c3c(F)c(F)c(F)c(F)c3C2=O)C1=O (configuration not stated)
GI50 (T-47D breast): 2.01 µM
TGI (T-47D breast): 4.8 µM

CC(=O)Nc1ccc(-c2cc(C(=O)O)c3cc4ccccc4cc3n2)cc1
TGI (T-47D breast): > 100 µM
TGI (MDA-N): > 100 µM

O=C(NCC1CC1)c1ccc(-c2cccc(C(=O)NC3CC3)c2)cc1
GI50 (T-47D breast): > 25 µM
TGI (T-47D breast): > 25 µM

O=C1C[C@H]2CCCN2[C@@H](c2ccccc2)C1
TGI (M19-MEL melanoma): > 100 µM
TGI (KM20L2 colon): > 100 µM
TGI (DMS 273 small cell lung): > 100 µM
TGI (RXF-631 renal): > 100 µM
TGI (LXFL 529 NSCLC): > 100 µM

c1ccc(C2ONC3=NCCN32)cc1 (configuration not stated)
GI50 (T-47D breast): 44 µM
TGI (T-47D breast): > 100 µM

O=[N+]([O-])c1ccccc1N=Nc1c(O)[nH]c2cccc(C(F)(F)F)c12
TGI (T-47D breast): > 100 µM
TGI (MDA-N): 33.3 µM

C=C1CCC2C3(C)COC(C)(C)OC3CCC2(C)C1C/C=C1/C(=O)OCC1OC(C)=O (configuration not stated)
GI50 (T-47D breast): 2.96 µM
TGI (T-47D breast): 11.5 µM

Oc1cccc(Nc2nc3ccccc3c3occc23)c1
TGI (T-47D breast): 21.2 µM

COC1=NCc2ccccc2-c2ccccc21
TGI (DLD-1 colon): > 100 µM
TGI (DMS 114 small cell lung): > 100 µM
TGI (DMS 273 small cell lung): > 100 µM

c1ccc(NN(Cc2cnccn2)c2ccccc2)cc1
TGI (T-47D breast): > 100 µM
TGI (MDA-N): > 100 µM

C=CCc1c(Cl)nc(Cl)nc1Cl
TGI (T-47D breast): 0.979 µM
TGI (MDA-N): 0.116 µM

CN(C)c1cc2ccccc2oc1=O
TGI (T-47D breast): > 100 µM
TGI (MDA-N): > 100 µM

COc1ccc2nccc(C3=CCC4CCN(C(=O)c5ccccc5)C3C4)c2c1 (configuration not stated)
TGI (M19-MEL melanoma): > 100 µM
TGI (DLD-1 colon): > 100 µM
TGI (DMS 114 small cell lung): > 100 µM
TGI (DMS 273 small cell lung): > 100 µM
TGI (LXFL 529 NSCLC): > 100 µM

Cc1ccc(S(=O)(=O)SC/C=C\CSS(=O)(=O)c2ccc(C)cc2)cc1
TGI (T-47D breast): > 100 µM
TGI (MDA-N): > 31.6 µM
TGI (M19-MEL melanoma): > 100 µM and 95.1 µM
TGI (KM20L2 colon): > 88.5 µM and 49.1 µM
TGI (DLD-1 colon): > 100 µM and 47.7 µM
GI50 (DMS 273 small cell lung): 3.92 µM and 18.3 µM
TGI (DMS 273 small cell lung): > 43.7 µM and 35.3 µM
GI50 (LXFL 529 NSCLC): 8.61 µM and 17.5 µM
TGI (LXFL 529 NSCLC): > 67.8 µM and 33.9 µM
